Experimental data: ChEMBL document CHEMBL4507258 (2021)

Columns and labels:
Settings in all cases: Compound concentration 1000.0 nM
[1] = target: Mitogen-activated protein kinase kinase kinase 20 (Homo sapiens) (UniProt Q9NYL2)
[2] = target: Non-receptor tyrosine-protein kinase TNK1 (Homo sapiens) (UniProt Q13470)
[3] = target: Leucine-rich repeat serine/threonine-protein kinase 2 (Homo sapiens) (UniProt Q5S007)
[4] = target: STE20-like serine/threonine-protein kinase (Homo sapiens) (UniProt Q9H2G2)
[5] = target: Cyclin-dependent kinase 2 homolog (Plasmodium falciparum (isolate 3D7)) (UniProt P61075)
[6] = target: Muscle, skeletal receptor tyrosine-protein kinase (Homo sapiens) (UniProt O15146)
[7] = target: Serine/threonine-protein kinase VRK2 (Homo sapiens) (UniProt Q86Y07)
Chain of Serine/threonine-protein kinase VRK2 (Homo sapiens) (Q86Y07 whole entry): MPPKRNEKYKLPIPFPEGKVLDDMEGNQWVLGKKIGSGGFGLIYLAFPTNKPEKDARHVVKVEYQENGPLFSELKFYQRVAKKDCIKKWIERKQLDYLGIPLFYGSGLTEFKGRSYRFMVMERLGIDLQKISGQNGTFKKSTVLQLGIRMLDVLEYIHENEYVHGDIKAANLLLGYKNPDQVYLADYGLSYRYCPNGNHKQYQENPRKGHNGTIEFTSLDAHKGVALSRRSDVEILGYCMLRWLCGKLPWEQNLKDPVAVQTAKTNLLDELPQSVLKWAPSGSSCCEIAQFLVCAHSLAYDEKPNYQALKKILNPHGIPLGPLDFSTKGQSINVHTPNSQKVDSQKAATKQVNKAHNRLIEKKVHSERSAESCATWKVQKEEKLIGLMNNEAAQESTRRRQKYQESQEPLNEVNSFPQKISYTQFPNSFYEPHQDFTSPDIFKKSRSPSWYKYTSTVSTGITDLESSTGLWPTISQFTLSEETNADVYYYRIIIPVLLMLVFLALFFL

[8] = target: Casein kinase II subunit alpha (Homo sapiens) (UniProt P68400)
[9] = target: G protein-coupled receptor kinase 4 (Homo sapiens) (UniProt P32298)
[10] = target: Aurora kinase C (Homo sapiens) (UniProt Q9UQB9)
[11] = target: Ephrin type-A receptor 2 (Homo sapiens) (UniProt P29317)
Chain of Ephrin type-A receptor 2 (Homo sapiens) (P29317 whole entry): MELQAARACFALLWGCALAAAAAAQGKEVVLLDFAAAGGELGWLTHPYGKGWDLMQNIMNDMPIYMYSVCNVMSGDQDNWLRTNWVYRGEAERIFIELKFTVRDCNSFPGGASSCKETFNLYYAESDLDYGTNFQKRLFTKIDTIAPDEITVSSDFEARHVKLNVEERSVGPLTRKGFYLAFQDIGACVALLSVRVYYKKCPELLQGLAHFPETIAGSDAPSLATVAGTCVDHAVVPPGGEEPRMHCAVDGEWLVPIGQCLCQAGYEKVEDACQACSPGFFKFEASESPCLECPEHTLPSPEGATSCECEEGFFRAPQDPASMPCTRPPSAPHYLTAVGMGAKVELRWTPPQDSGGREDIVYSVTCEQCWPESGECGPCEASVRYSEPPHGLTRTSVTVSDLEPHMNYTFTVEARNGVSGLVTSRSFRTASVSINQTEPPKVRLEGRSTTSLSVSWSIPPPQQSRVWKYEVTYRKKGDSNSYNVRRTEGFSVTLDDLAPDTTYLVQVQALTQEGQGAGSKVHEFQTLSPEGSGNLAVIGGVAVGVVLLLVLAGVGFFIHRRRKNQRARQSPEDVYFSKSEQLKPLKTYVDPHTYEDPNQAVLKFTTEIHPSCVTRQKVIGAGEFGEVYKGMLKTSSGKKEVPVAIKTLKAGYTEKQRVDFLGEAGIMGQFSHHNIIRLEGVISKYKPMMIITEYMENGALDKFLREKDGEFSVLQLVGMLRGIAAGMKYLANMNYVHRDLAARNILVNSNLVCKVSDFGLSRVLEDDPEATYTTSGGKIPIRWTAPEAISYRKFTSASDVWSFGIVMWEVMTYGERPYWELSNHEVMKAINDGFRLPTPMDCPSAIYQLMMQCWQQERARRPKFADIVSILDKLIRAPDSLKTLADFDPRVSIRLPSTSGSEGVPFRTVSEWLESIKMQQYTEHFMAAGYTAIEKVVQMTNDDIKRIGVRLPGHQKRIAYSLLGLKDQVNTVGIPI

[12] = target: Receptor-interacting serine/threonine-protein kinase 1 (Homo sapiens) (UniProt Q13546)
[13] = target: Serine/threonine-protein kinase ULK2 (Homo sapiens) (UniProt Q8IYT8)
[14] = target: Serine/threonine-protein kinase STK11 (Homo sapiens) (UniProt Q15831)
[15] = target: Macrophage-stimulating protein receptor (Homo sapiens) (UniProt Q04912)
Chain of Macrophage-stimulating protein receptor (Homo sapiens) (Q04912 25-304 limits assumed): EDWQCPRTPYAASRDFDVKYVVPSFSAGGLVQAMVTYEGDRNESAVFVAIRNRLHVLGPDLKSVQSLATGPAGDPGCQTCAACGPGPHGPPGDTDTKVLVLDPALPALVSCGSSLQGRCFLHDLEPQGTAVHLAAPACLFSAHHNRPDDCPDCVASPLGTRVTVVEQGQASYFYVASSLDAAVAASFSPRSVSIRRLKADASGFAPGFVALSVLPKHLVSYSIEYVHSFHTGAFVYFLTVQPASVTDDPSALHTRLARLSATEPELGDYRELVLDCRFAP
Chain of Macrophage-stimulating protein receptor (Homo sapiens) (Q04912 310-1400 limits assumed): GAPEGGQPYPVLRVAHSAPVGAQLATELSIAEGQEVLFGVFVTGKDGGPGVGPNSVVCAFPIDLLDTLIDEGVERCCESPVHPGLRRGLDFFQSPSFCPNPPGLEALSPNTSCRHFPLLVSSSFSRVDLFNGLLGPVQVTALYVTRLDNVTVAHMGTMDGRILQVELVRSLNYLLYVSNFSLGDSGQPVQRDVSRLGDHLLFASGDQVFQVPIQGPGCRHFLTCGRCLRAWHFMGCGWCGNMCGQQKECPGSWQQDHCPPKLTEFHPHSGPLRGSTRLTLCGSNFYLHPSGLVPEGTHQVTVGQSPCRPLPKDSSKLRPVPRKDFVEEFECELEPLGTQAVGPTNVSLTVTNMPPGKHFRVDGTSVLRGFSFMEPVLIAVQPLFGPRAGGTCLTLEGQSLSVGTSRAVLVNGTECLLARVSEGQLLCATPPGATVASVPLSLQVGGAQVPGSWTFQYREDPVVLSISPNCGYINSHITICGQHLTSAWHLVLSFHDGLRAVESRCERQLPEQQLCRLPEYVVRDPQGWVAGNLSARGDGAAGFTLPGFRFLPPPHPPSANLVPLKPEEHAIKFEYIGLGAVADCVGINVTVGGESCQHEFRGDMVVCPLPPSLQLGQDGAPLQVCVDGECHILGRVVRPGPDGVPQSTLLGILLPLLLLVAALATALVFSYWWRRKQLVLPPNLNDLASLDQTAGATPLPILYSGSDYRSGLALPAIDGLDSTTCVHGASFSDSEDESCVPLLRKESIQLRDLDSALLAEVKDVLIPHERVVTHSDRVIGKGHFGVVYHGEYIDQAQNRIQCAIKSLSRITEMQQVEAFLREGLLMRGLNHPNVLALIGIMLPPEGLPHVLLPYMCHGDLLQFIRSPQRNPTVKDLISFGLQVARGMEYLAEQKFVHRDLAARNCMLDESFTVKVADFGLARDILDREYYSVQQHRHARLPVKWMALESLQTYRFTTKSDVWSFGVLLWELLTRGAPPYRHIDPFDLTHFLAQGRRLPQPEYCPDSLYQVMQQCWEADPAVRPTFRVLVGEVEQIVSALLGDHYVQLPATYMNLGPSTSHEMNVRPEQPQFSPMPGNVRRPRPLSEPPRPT

[16] = target: Dual specificity protein kinase CLK2 (Homo sapiens) (UniProt P49760)
Chain of Dual specificity protein kinase CLK2 (Homo sapiens) (P49760 whole entry, looked up): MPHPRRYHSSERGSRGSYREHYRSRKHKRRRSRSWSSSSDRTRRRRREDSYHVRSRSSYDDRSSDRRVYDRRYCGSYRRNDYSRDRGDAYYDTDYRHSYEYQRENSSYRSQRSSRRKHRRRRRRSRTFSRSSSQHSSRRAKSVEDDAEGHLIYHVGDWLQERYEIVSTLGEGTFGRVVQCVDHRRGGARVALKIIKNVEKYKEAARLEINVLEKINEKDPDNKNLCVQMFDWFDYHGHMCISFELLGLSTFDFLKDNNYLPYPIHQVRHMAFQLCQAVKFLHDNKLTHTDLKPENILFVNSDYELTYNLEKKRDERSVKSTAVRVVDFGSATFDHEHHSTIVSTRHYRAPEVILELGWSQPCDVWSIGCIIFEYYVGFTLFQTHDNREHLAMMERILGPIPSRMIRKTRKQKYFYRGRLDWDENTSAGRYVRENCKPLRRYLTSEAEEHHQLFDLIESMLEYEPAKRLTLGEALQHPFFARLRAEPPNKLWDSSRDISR

[17] = target: Inhibitor of nuclear factor kappa-B kinase subunit beta (Homo sapiens) (UniProt O14920)
[18] = target: Cyclin-dependent kinase 2 (Homo sapiens) (UniProt P24941)
[19] = target: Inhibitor of nuclear factor kappa-B kinase subunit alpha (Homo sapiens) (UniProt O15111)
[20] = target: Membrane-associated tyrosine- and threonine-specific cdc2-inhibitory kinase (Homo sapiens) (UniProt Q99640)
[21] = target: Protein kinase C delta type (Homo sapiens) (UniProt Q05655)
[22] = target: Serine/threonine-protein kinase LATS1 (Homo sapiens) (UniProt O95835)
[23] = system: Receptor-type tyrosine-protein kinase FLT3 (Homo sapiens), P36888 [D835V]
[24] = target: Serine/threonine-protein kinase 17B (Homo sapiens) (UniProt O94768)
[25] = target: Serine/threonine-protein kinase 17A (Homo sapiens) (UniProt Q9UEE5)
[26] = target: Mitogen-activated protein kinase kinase kinase 14 (Homo sapiens) (UniProt Q99558)
[27] = target: Serine/threonine-protein kinase RIO3 (Homo sapiens) (UniProt O14730)
[28] = target: Ephrin type-A receptor 3 (Homo sapiens) (UniProt P29320)
[29] = target: Aurora kinase B (Homo sapiens) (UniProt Q96GD4)
[30] = target: Ribosomal protein S6 kinase alpha-1 (Homo sapiens) (UniProt Q15418)
[31] = target: Phosphatidylinositol 3-kinase C2 domain-containing subunit gamma (Homo sapiens) (UniProt O75747)
[32] = target: SRSF protein kinase 1 (Homo sapiens) (UniProt Q96SB4)
[33] = target: Phosphatidylinositol 4,5-bisphosphate 3-kinase catalytic subunit alpha isoform (Homo sapiens) (UniProt P42336)
[34] = target: Discoidin domain-containing receptor 2 (Homo sapiens) (UniProt Q16832)
[35] = target: LIM domain kinase 2 (Homo sapiens) (UniProt P53671)
[36] = target: Macrophage colony-stimulating factor 1 receptor (Homo sapiens) (UniProt P07333)
Chain of Macrophage colony-stimulating factor 1 receptor (Homo sapiens) (P07333 whole entry): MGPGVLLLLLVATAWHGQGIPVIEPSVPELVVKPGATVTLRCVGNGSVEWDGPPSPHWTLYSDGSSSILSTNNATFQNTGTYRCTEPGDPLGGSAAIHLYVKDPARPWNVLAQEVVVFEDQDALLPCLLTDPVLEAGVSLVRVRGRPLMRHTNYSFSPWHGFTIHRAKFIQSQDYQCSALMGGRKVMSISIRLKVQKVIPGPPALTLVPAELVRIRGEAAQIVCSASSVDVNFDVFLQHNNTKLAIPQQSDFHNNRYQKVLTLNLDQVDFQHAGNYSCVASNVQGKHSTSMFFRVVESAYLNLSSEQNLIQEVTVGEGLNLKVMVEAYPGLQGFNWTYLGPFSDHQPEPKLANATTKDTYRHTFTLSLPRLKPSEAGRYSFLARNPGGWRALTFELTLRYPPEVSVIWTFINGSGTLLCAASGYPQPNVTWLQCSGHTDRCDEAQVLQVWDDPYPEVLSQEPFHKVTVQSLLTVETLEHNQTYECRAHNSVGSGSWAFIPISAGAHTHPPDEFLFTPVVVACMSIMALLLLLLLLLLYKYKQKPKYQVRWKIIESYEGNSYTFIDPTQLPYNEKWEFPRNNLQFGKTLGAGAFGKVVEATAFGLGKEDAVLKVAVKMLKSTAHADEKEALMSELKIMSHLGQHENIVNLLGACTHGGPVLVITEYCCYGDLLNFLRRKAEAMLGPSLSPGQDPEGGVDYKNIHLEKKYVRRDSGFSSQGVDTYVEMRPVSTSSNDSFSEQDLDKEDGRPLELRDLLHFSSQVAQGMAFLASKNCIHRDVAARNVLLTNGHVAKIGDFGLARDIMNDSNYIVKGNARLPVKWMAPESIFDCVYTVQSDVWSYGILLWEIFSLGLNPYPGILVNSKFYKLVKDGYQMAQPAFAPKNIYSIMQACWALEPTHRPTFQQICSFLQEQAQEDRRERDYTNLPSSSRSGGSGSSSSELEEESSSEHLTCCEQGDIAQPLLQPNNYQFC

[37] = target: Serine/threonine-protein kinase 35 (Homo sapiens) (UniProt Q8TDR2)
[38] = target: Casein kinase I isoform delta (Homo sapiens) (UniProt P48730)
[39] = target: Protein-tyrosine kinase 2-beta (Homo sapiens) (UniProt Q14289)
[40] = target: Serine/threonine-protein kinase TBK1 (Homo sapiens) (UniProt Q9UHD2)
[41] = target: Ribosomal protein S6 kinase beta-1 (Homo sapiens) (UniProt P23443)
[42] = target: Bone morphogenetic protein receptor type-2 (Homo sapiens) (UniProt Q13873)
[43] = target: Tyrosine-protein kinase BTK (Homo sapiens) (UniProt Q06187)
[44] = target: Serine/threonine-protein kinase 36 (Homo sapiens) (UniProt Q9NRP7)
[45] = target: Calcium/calmodulin-dependent protein kinase type IV (Homo sapiens) (UniProt Q16566)

Chain of Non-receptor tyrosine-protein kinase TNK1 (Homo sapiens) (Q13470 whole entry): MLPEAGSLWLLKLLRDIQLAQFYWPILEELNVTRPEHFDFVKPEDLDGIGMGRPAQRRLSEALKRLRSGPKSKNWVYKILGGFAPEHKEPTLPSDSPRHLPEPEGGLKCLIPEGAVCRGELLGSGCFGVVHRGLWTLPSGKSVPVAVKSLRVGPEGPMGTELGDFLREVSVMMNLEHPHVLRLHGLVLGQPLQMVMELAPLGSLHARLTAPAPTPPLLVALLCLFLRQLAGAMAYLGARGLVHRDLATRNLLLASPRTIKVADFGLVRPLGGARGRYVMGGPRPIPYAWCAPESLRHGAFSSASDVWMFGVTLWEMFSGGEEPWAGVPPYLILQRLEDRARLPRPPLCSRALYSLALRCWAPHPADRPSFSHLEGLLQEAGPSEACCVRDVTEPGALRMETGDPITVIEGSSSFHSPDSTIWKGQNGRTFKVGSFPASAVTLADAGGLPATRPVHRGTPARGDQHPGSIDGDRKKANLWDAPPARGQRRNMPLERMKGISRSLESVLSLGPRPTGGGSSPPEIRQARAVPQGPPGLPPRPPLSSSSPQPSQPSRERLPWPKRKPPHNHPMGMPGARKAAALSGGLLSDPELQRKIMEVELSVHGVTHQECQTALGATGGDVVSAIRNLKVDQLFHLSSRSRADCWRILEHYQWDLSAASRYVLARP

With `CCCCN(CCCC)C(=O)CN1C[C@@H](c2cc(OC)c3c(c2)OCO3)[C@H](C(=O)O)[C@H]1CC(C)(C)CCC` [A-545] the residual activity [1] was 91.3%, the residual activity [2] was 100% and the residual activity [3] was 65.9%. For the same compound, the residual activity [4] was 92.5%, the residual activity [5] was 95.9% and the residual activity [6] was 78.7%. The residual activity [7] was 95.4%, the residual activity [8] was 88.6% and the residual activity [9] was 95.8%. For the same compound, the residual activity [10] was 100%, the residual activity [11] was 97.8% and the residual activity [12] was 100%. It also gave a residual activity [13] of 89.2%, a residual activity [14] of 82.2% and a residual activity [15] of 100%. The residual activity [16] was 100%, the residual activity [17] was 100% and the residual activity [18] was 100%. It also gave a residual activity [19] of 100%, a residual activity [20] of 100% and a residual activity [21] of 98.2%. The residual activity [22] was 75.2%, the residual activity [23] was 78.8% and the residual activity [24] was 100%. The residual activity [25] was 100%, the residual activity [26] was 100% and the residual activity [27] was 100%. For the same compound, the residual activity [28] was 95.3%, the residual activity [29] was 100% and the residual activity [30] was 91.3%. It also gave a residual activity [31] of 80.3%, a residual activity [32] of 62.5% and a residual activity [33] of 95.9%. The residual activity [34] was 99.1%, the residual activity [35] was 86.8% and the residual activity [36] was 86.7%. For the same compound, the residual activity [37] was 100%, the residual activity [38] was 98.9% and the residual activity [39] was 93.4%. It also gave a residual activity [40] of 100%, a residual activity [41] of 99% and a residual activity [42] of 86.7%. For the same compound, the residual activity [43] was 100%, the residual activity [44] was 75% and the residual activity [45] was 100%.

In the case of `CCCCN(CCCC)C(=O)CN1C[C@H](c2cc(OC)c3c(c2)OCO3)[C@@H](C(=O)O)[C@@H]1CC(C)(C)CCC` [ABT-546], the residual activity [1] is reported as 85.2%, the residual activity [2] is reported as 100% and the residual activity [3] is reported as 38%. The residual activity [4] was 100%, the residual activity [5] was 72.2% and the residual activity [6] was 100%. For the same compound, the residual activity [7] was 72.8%, the residual activity [8] was 68.5% and the residual activity [9] was 100%. The residual activity [10] was 100%, the residual activity [11] was 100% and the residual activity [12] was 100%. It also gave a residual activity [13] of 88.8%, a residual activity [14] of 100% and a residual activity [15] of 100%. The residual activity [16] was 100%, the residual activity [17] was 81.5% and the residual activity [18] was 100%. The residual activity [19] was 56.2%, the residual activity [20] was 100% and the residual activity [21] was 100%. The residual activity [22] was 100%, the residual activity [23] was 57.4% and the residual activity [24] was 100%. The residual activity [25] was 100%, the residual activity [26] was 100% and the residual activity [27] was 74.9%. It also gave a residual activity [28] of 100%, a residual activity [29] of 100% and a residual activity [30] of 97.7%. It also gave a residual activity [31] of 100%, a residual activity [32] of 100% and a residual activity [33] of 89.7%. For the same compound, the residual activity [34] was 76.6%, the residual activity [35] was 100% and the residual activity [36] was 100%. For the same compound, the residual activity [37] was 100%, the residual activity [38] was 100% and the residual activity [39] was 100%. For the same compound, the residual activity [40] was 100%, the residual activity [41] was 92.8% and the residual activity [42] was 80%. It also gave a residual activity [43] of 61.3%, a residual activity [44] of 100% and a residual activity [45] of 100%.
